Patent US9896441B2 (Lycera Corporation, priority 2014, dated 2018)

Legend:
Gal4-RORγ-LBD = molecular target: T1, Gal4-RORγ-LBD (Homo sapiens, UniProt P51449); test: Gal4-RORγ Luciferase Reporter Assay in HEK-293T Cells; format: cell-based; settings: HEK-293 cells
T1 construct: expressed in transfected cells
T1 sequence (P51449 269-508 limits assumed): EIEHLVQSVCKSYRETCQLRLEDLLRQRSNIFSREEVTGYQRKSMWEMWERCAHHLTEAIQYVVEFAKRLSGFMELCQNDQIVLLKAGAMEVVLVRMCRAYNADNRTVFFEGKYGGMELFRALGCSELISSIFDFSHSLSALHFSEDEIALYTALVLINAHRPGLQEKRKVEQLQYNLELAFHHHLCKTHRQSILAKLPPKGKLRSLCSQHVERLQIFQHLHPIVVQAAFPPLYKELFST
Procedure, shortened: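 Max Response was taken as the upper plateau of a 4-parameter logistic fit of luciferase signal, normalized to 100 for wells without ursolic acid or compound. Transiently Gal4-RORγ-LBD/Gal4-luc transfected HEK-293 cells carrying […] ursolic acid were incubated with test compounds (0.2% DMSO) overnight at 37 °C and read with One-Glo.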

RORγ-LBD = molecular target: T2, RORγ-LBD (Homo sapiens, UniProt P51449); test: RORγ-Ligand Binding Domain (LBD) TR-FRET Assay; format: biochemical
T2 construct: made in house; host or cells: SF9 cells (baculovirus); used as diluted lysate
T2 sequence (P51449 269-508 limits assumed): T1 sequence (P51449 269-508 limits assumed)
Procedure, shortened: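 Compounds, diluted in DMSO and then in assay buffer (1% DMSO final), were combined with His-tagged RORγ-LBD lysate at roughly 3 nM final and a 200 nM biotinylated SRC1 LXXLL peptide. Ursolic acid was included at 2 μM final. Coactivator recruitment was detected by TR-FRET.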

[1] = luciferase reporter, with ursolic acid

EC50 (Gal4-RORγ-LBD; [1]) | EC50 (RORγ-LBD; RORγ-LBD TR-FRET) | EC50 (Gal4-RORγ-LBD; ursolic acid present, luciferase readout) | EC50 (RORγ-LBD; with 2 μM ursolic acid (RORγ antagonist), highest test concentration 10 μM) | Structure (SMILES)
0.5 to 5 µM | < 0.5 µM |  |  | COC(=O)CC[C@H]1CN(S(=O)(=O)c2cccc(OC(F)F)c2)c2cc(/C=C(\C)c3c(F)cccc3Cl)c(C)cc2O1 [Example 53, (S,E)-Methyl 3-(6-(2-(2-chloro-6-fluorophenyl)prop-1-en-1-yl)-4-((3-(difluoromethoxy)phenyl)sulfonyl)-7-methyl-3,4-dihydro-2H-benzo[b][1,4]oxazin-2-yl)propanoate]
< 0.5 µM | < 0.5 µM |  |  | CC(F)(F)c1cccc(Cl)c1/C=C/c1ccc2c(c1)N(S(=O)(=O)c1cc(C(F)(F)F)cnc1OCCO)C[C@H](CCC(=O)O)O2 [Example 89FI, (S,E)-3-(6-(2-chloro-6-(1,1-difluoroethyl)styryl)-4-((2-(2-hydroxyethoxy)-5-(trifluoromethyl)pyridin-3-yl)sulfonyl)-3,4-dihydro-2H-benzo[b][1,4]-oxazin-2-yl)propanoic acid]
< 0.5 µM | < 0.5 µM |  |  | COc1cc(S(=O)(=O)N2CCCc3ccc(OCc4c(Cl)cccc4C(F)(F)F)cc32)ccc1F [Example 25Q, 7-((2-chloro-6-(trifluoromethyl)benzyl)oxy)-1-((4-fluoro-3-methoxyphenyl)sulfonyl)-1,2,3,4-tetrahydroquinoline]
< 0.5 µM | < 0.5 µM |  |  | C/C(=C\c1cc(F)c2c(c1)N(S(=O)(=O)c1cccc(C(F)(F)F)c1)C[C@H](CCC(=O)O)O2)c1c(F)cccc1Cl [Example 50, (S,E)-3-(6-(2-(2-Chloro-6-fluorophenyl)prop-1-en-1-yl)-8-fluoro-4-((3-(trifluoromethyl)phenyl)sulfonyl)-3,4-dihydro-2H-benzo[b][1,4]oxazin-2-yl)propanoic acid]
 |  | < 0.5 µM | < 0.5 µM | CC/C(=C\c1ccc2c(c1)N(S(=O)(=O)c1cccc(C(F)(F)F)c1)C[C@H](CCC(=O)OC)O2)C(C)C [Example 191H, methyl (S,E)-3-(6-(2-ethyl-3-methylbut-1-en-1-yl)-4-((3-(trifluoromethyl)phenyl)sulfonyl)-3,4-dihydro-2H-benzo[b][1,4]-oxazin-2-yl)propanoate]
0.5 to 5 µM | < 0.5 µM |  |  | CCOc1ncc(Cl)cc1S(=O)(=O)N1C[C@H](CCC(=O)O)Oc2ccc(/C=C(\C)c3c(F)cccc3Cl)cc21 [Example 68, (S,E)-3-(4-((5-Chloro-2-ethoxypyridin-3-yl)sulfonyl)-6-(2-(2-chloro-6-fluorophenyl)prop-1-en-1-yl)-3,4-dihydro-2H-benzo[b][1,4]oxazin-2-yl)propanoic acid]
< 0.5 µM | < 0.5 µM |  |  | O=C(O)CC[C@H]1CN(S(=O)(=O)c2cccc(C(F)(F)F)c2)c2cc(/C=C3\CC4CCC3C4)ccc2O1 (stereo partly drawn) [Example 95S, 3-((2S)-6-((E)-bicyclo[2.2.1]heptan-2-ylidenemethyl)-4-((3-(trifluoromethyl)phenyl)sulfonyl)-3,4-dihydro-2H-benzo[b][1,4]oxazin-2-yl)propanoic acid]
5 to 10 µM | < 0.5 µM |  |  | Cc1ccc(F)c(/C=C/c2ccc3c(c2)N(S(=O)(=O)c2cccc(C(F)(F)F)c2)C[C@H](CCC(=O)O)O3)n1 [Example 89CG, (S,E)-3-(6-(2-(3-fluoro-6-methylpyridin-2-yl)vinyl)-4-((3-(trifluoromethyl)phenyl)sulfonyl)-3,4-dihydro-2H-benzo[b][1,4]-oxazin-2-yl)propanoic acid]
< 0.5 µM | < 0.5 µM |  |  | CCOc1sc(CC)nc1S(=O)(=O)N1C[C@H](CCC(=O)OC)Oc2ccc(/C=C(\C)c3c(F)cccc3Cl)cc21 [Example 72, Methyl (S,E)-3-(6-(2-(2-chloro-6-fluorophenyl)prop-1-en-1-yl)-4-((5-ethoxy-2-ethylthiazol-4-yl)sulfonyl)-3,4-dihydro-2H-benzo[b][1,4]oxazin-2-yl)propanoate]
> 10 µM | < 0.5 µM |  |  | COC(=O)CC[C@H]1CN(S(=O)(=O)c2cccc(OC(F)F)c2)c2cc(/C=C/c3ncccn3)ccc2O1 [Example 89H, (S,E)-methyl 3-(4-((3-(difluoromethoxy)-phenyl)sulfonyl)-6-(2-(pyrimidin-2-yl)vinyl)-3,4-dihydro-2H-benzo[b][1,4]oxazin-2-yl)propanoate]
